# Measured values published in patent publication US11725001B2, “Bicyclic compound and use thereof” (SK BIOPHARMACEUTICALS CO., LTD., priority 2019, dated 2023).
# Target: PRMT5-MEP50 enzyme complex (Homo sapiens (Human), UniProt O14744)
# Assay: PRMT5 enzyme activity in vitro assay (methylation of histone H4R3, ELISA absorbance at 450 nm)
# Format: biochemical
# Details: SAM, histone H4 peptide, 2 hours at room temperature, 8 points from 10 μM to 0.128 nM
# Method: Method for Measuring Enzyme Activity
# In vitro assay: PRMT5-MEP50 enzyme complex, cofactor S-adenosylmethionine (SAM) and histone H4 peptide were reacted in vitro, and methylation of arginine (H4R3)—which is the third amino acid of histone H4—was measured in order to measure the enzyme activity of PRMT5.
# S-adenosylmethionine was purchased from NEB (New England Biolabs, USA, Catalog No. B9003S).
# Experimental procedure: The histone H4 peptide was diluted with carbonate-bicarbonate buffer and prepared to 100 μg/mL, and then dispensed onto the plate per 100 μL and reacted at 37° C. for 1 hour. PRMT5-MEP50 enzyme complex and S-adenosylmethionine were diluted with histone methyltransferase reaction buffer to prepare 5 μg/mL and 2 μM, respectively, and then 20 μL of PRMT5-MEP50 enzyme complex and 25 μL of S-adenosylmethionine were dispensed onto the plate prepared above. 5 μL of the compound diluted with 10% dimethyl sulfoxide solution was added thereto and reacted at room temperature for 2 hours (final volume=50 μL). […] After preparing the primary antibody by diluting 1:2000 with blocking buffer, 100 μL was added to the plate and reacted at room temperature for 1 hour. […] Then, the absorbance at 450 nm was measured to calculate the IC50 value of the compound. […]
# Sequence of PRMT5-MEP50 enzyme complex (O14744 2-637): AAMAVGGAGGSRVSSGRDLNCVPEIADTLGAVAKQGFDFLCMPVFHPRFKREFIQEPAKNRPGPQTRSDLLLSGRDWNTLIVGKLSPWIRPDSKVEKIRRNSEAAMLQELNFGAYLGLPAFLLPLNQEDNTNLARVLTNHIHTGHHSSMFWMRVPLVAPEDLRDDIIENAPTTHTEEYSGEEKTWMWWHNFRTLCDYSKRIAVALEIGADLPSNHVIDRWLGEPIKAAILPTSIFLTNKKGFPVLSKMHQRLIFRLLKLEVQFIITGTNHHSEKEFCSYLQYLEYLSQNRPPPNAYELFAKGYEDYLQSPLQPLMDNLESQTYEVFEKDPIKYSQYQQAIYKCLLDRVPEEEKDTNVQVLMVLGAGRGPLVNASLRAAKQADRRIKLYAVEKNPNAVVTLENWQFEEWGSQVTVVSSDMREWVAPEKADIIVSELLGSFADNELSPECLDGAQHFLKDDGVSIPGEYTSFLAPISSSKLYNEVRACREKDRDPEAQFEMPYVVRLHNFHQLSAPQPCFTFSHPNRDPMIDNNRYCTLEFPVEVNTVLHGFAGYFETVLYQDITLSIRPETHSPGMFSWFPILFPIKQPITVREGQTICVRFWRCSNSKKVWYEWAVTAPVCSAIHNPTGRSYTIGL
# Sequence of PRMT5-MEP50 enzyme complex (Q9BQA1 2-342 partner): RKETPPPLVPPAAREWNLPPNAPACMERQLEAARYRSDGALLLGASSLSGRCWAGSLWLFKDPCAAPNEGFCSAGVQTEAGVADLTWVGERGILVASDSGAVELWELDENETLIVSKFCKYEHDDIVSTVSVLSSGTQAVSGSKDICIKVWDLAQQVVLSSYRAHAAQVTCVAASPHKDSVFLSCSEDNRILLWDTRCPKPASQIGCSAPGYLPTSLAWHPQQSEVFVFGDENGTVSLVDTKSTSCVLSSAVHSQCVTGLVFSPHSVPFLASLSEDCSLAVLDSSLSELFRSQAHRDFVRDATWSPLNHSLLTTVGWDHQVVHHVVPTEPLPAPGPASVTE
row,IC50 [µM],SMILES
1,0.1 to 1,"CCN1C(=O)CN(C[C@H](O)CN2CCc3ccccc3C2)C(=O)c2ccc(Br)cc21 [Example 158, 8-bromo-4-[(2R)-3-(3,4-dihydro-1H-isoquinolin-2-yl)-2-hydroxy-propyl]-1-ethyl-3H-1,4-benzodiazepin-2,5-dione]"
2,0.1 to 1,"COc1ccc2c(c1)OCCN(CC(O)CN1CCc3ccccc3C1)C2=O (centres unmarked) [Example 1, 4-[3-(3,4-dihydro-1H-isoquinolin-2-yl)-2-hydroxy-propyl]-8-methoxy-2,3-dihydro-1,4-benzoxazepin-5-one]"

# System: SDMA levels in U87MG tumor
# Assay: Test for in vivo target inhibitory activity (SDMA levels in U87MG tumor)
# Details: U87MG tumor implanted subcutaneously in nude mice, oral 25 or 50 mg/kg 1-2 times daily for one week
# Method: Test for In Vivo Target Inhibitory Activity
# After U87MG tumor cells were implanted subcutaneously in nude mice, a PRMT5 inhibitor was administered orally (25 or 50 mg/kg) 1-2 times daily for one week, and then the degree to which SDMA levels in the tumor decreased was measured.
# Reagents: Bradford's solution (Catalog No. 500-0006) was purchased from Bio-rad (USA). SDMA antibody (Catalog No. 13222s) was purchased from Cell Signaling Technology (USA). SmD3 antibody (Catalog No. ap12451a) was purchased from Abgent (USA), and secondary antibody (Catalog No. ab6721) and TMB substrate (Catalog No. ab210902) were purchased from Abcam (UK).
# Experimental procedure: The tumor tissues transplanted into the mice were excised, the cells were lysed, and then quantified with Bradford's solution. 5-10 μg of protein per sample was diluted with carbonate-bicarbonate buffer and dispensed into a 96-well plate and reacted at room temperature for 2 hours. After washing with phosphate buffered saline (PBST) containing 0.05% Tween-20 3 times, 200 μL of PBST containing 5% bovine serum albumin (BSA-PBST) was added and reacted at room temperature for 2 hours. After washing with PBST 3 times, the SDMA antibody and the SmD3 antibody were diluted in BSA-PBST, and 100 μL of each was dispensed onto the plate and reacted at 4° C. overnight. After washing with PBST 3 times the next day, 100 μL of the secondary antibody diluted in BSA-PBST was added and reacted at room temperature for 1 hour. After washing with PBST 3 times, 100 μL of TMB substrate was added and reacted at room temperature for 10-20 minutes, and 100 μL of 1N sulfuric acid solution was added to terminate the reaction. Then, the absorbance at 450 nm was measured to calculate the degree of SDMA inhibition by the compound. (+++: more than 70%, ++: more than 30% and 70% or less, +: 30% or less)
row,SMILES,SDMA inhibition (%)
1,"CN1CCC(Oc2ccc3c(c2)OC(C)(C)CN(C[C@H](O)CN2CCc4ccccc4C2)C3=O)CC1 [Example 112, 4-[(2R)-3-(3,4-dihydro-1H-isoquinolin-2-yl)-2-hydroxy-propyl]-2,2-dimethyl-8-[(1-methyl-4-piperidyl)oxy]-3H-1,4-benzoxazepin-5-one]",+++ (+++: more than 70%)
2,"O=C1c2ccc(OC3CCN(C4COC4)CC3)cc2OCCN1C[C@H](O)CN1CCc2ccccc2C1 [Example 92, 4-[(2R)-3-(3,4-dihydro-1H-isoquinolin-2-yl)-2-hydroxy-propyl]-8-[[1-(oxetan-3-yl)-4-piperidyl]oxy]-2,3-dihydro-1,4-benzoxazepin-5-one]",+++ (+++: more than 70%)
3,"CCN1CCC(Oc2ccc3c(c2)OCCN(C[C@H](O)CN2CCc4ccccc4C2)C3=O)CC1 [Example 88, 4-[(2R)-3-(3,4-dihydro-1H-isoquinolin-2-yl)-2-hydroxy-propyl]-8-[(1-ethyl-4-piperidyl)oxy]-2,3-dihydro-1,4-benzoxazepin-5-one]",+++ (+++: more than 70%)
4,"O=C1c2ccc(CN3CCOCC3)cc2OCCN1C[C@H](O)CN1CCc2ccccc2C1 [Example 22, 4-[(2R)-3-(3,4-dihydro-1H-isoquinolin-2-yl)-2-hydroxy-propyl]-8-(morpholinomethyl)-2,3-dihydro-1,4-benzoxazepin-5-one]",+++ (+++: more than 70%)
5,"CN1CCC(Oc2ccc3c(c2)OCCN(C[C@H](O)CN2CCc4ccccc4C2)C3=O)CC1 [Example 87, 4-[(2R)-3-(3,4-dihydro-1H-isoquinolin-2-yl)-2-hydroxy-propyl]-8-[(1-methyl-4-piperidyl)oxy]-2,3-dihydro-1,4-benzoxazepin-5-one]",+++ (+++: more than 70%)
6,"O=C1c2ccc(Br)cc2CCCN1C[C@H](O)CN1CCc2ccccc2C1 [Example 155, 7-bromo-2-[(2R)-3-(3,4-dihydro-1H-isoquinolin-2-yl)-2-hydroxy-propyl]-4,5-dihydro-3H-2-benzazepin-1-one]",+ (+: 30% or less)
